Here are results for 5 compounds from article PMC3352927, “Development and Validation of an Automated High-Throughput System for Zebrafish In Vivo Screenings” (PLoS ONE, 2012).

“Also recorded” adds a separate entry of the source.

Data set [1] deals with zebrafish embryos. Kind of data set: Embryo analysis at 72 hpf (blood circulation and ISVs development). It counts as in vivo. Particulars: for Blood circulation / ISVs appearance: 72 hpf. On the procedure:
Embryos from the Flk1:copGFP line were treated with the indicated compounds at 22–23 hpf in 500 µl of E3 in p24 well plates (5 embryos per well). After 48 hours of treatment embryos were anesthetized with 10 µl Tricaine (final concentration 0.02%) and analyzed for the presence of blood circulation and ISVs development using a Leica M205 FA stereoscope equipped with a Hamamatsu C10600 camera.

Data set [2] concerns zebrafish embryos. Nature of the data set: Automated angiogenesis assay (ISV formation), Flk1:copGFP embryos treated at 22-26 hpf, read at 48 hpf. It counts as in vivo. Conditions: for Efective concentration (minimum concentration that showed an effect): given when IC50 could not be calculated; for Angiog. inhibition: presence or absence of an anti-angiogenic effect, 0.01-100 µM; for Anti-angiogenic phenotype (ISVs / DLAV): treated at 24 hpf, checked at 48 hpf.
Text: In the angiogenesis assay, the fluorescent images taken were processed using AxioVision 4.6.3 and a macro was developed to quantify an indirect measure of the area of the ISVs. […] However, we usually include a manual counting to offer a more detailed measurement of effect.
In the automatic analysis of angiogenesis, it is first necessary to perform a sequence of automated filtering functions on the image to extract information, define the region of interest (ROI), that in this case is the part of the tail containing the ISVs, and allow the measurement of the embryo length. Recovering a previous image, new filtering functions are applied to the ROI. A gradient image containing the ISVs, the DLAV (Dorsal Longitudinal Anastomotic Vessel), the PCV and the DA is created. Next, fluorescent areas that should not be quantified are discarded. Finally, only the areas comprised between the ISVs, the DLAV and the PCV or the DA are measured (Figure 4). In that way, when the vessels are incomplete or the DLAV is not present, an enclosed area is not present and therefore not measured.
The means obtained from the treated embryos were compared with the control mean. When statistically significant differences were detected a deeper analysis was done manually. In this case the parameters quantified were:
• The total number of ISVs present in the trunk of the embryos (from where the largest bulge of the yolk ends to the end of the tail). • Number of complete ISVs (reached the dorsal part of the embryo and formed the DLAV).
A curve of six concentrations (0.01, 0.1, 1, 10, 30 and 100 µM) was performed for all of them. […] IC50 was calculated when a clear dose-dependent anti-angiogenesis effect was detected. Otherwise, the minimum dose at which the inhibition of angiogenesis was observed is shown (Table 4).
At this time, chorions were removed with protease from Streptomyces griseus (Sigma-Aldrich) (1.5 mg/ml for 6 minutes) and the embryos were sorted and dispensed 1 per well in a 96 well assay plate. Each experimental condition was tested in a row with ten embryos. Embryos were dispensed in an average final volume of 90 µl of E3 media. 90 µl of the test items (DMSO and positive control KRN633 included) previously diluted 100 times were dispensed into each well of the assay plate containing the embryos to get the final volume of 180 µl and the desired final concentration.
The microscope scanned the wells by columns and a bright field image and a fluorescent image (2.5×magnification) were acquired per well. Then, the image analysis was performed and the result file generated.
Statistical analysis and graphical representation of the data were performed using SSPS (Statistical Package for the Social Sciences) software and Prism (Graph Pad Software) for IC50 calculations (non linear regression, sigmoidal dose-response with variable slope). […] In the angiogenesis assay, for comparisons between two groups, two-tailed t-test was used assuming unequal variances. For comparisons between more than two groups one-way analysis of variance followed by Dunnett’s post-test was applied to compare each data point with vehicle control.

A short description of data set [3]: Dilution of compound in E3 medium. It is filed as physicochemical.

For `COc1cc(Nc2c(C#N)cnc3cc(OCCCN4CCN(C)CC4)c(OC)cc23)c(Cl)cc1Cl` [Bosutinib], in the data set with zebrafish embryos [1], the Blood circulation result is recorded as “impaired blood circulation” and the ISVs appearance entry is reported as “thinner ISVs that were disrupted in some cases”. In the data set with zebrafish embryos [2], the “Efective concentration (minimum concentration that showed an effect)” value (“Efective concentration” below) is recorded as 50 µM, the Angiog. inhibition entry is given as “Yes” and the “Anti-angiogenic phenotype (ISVs / DLAV)” value is on record as “moderate effect that did not increase with higher doses”.
Regarding `CS(=O)(=O)Nc1ccc([N+](=O)[O-])cc1OC1CCCCC1` [NS-398], the Lethality result in the data set with zebrafish embryos [1] (treatment to 72 hpf at the 48 hpf doses which inhibited angiogenesis) is reported as “lethal”. In the data set on zebrafish embryos [2], the “Efective concentration” value was 30 µM, the Angiog. inhibition entry is reported as “Yes” and the “Anti-angiogenic phenotype (ISVs / DLAV)” value is on record as “moderate effect that did not increase with higher doses”.
Consider `Cn1c(=O)n(-c2ccc(C(C)(C)C#N)cc2)c2c3cc(-c4cnc5ccccc5c4)ccc3ncc21` [NVP-BEZ235], for which, in the data set on zebrafish embryos [1], the Blood circulation result is given as “impaired blood circulation” and the ISVs appearance result is on record as “thinner ISVs that were disrupted in some cases”. In the data set on zebrafish embryos [2], the “Efective concentration” value is recorded as 10 µM, the Angiog. inhibition result is “Yes” and the “Anti-angiogenic phenotype (ISVs / DLAV)” value is given as “moderate effect that did not increase with higher doses”.
The corresponding values for `CCN(CC)CCCCNc1ncc2cc(-c3cc(OC)cc(OC)c3)c(NC(=O)NC(C)(C)C)nc2n1` [PD173074] are “impaired blood circulation”, “thinner ISVs that were disrupted in some cases”, 100 µM, “Yes” and “moderate effect that did not increase with higher doses; also recorded: inhibit proper development of the DLAV; also recorded: thinner ISVs rather than incomplete vessel formation”.
For `CC(=O)O[C@H]1C(=O)[C@@]2(C)[C@H]([C@H](OC(=O)c3ccccc3)[C@]3(O)C[C@H](OC(=O)[C@H](O)[C@@H](NC(=O)c4ccccc4)c4ccccc4)C(C)=C1C3(C)C)[C@]1(OC(C)=O)CO[C@@H]1C[C@@H]2O` [Paclitaxel], the “Inhibition of angiogenesis at maximum dose tested in medium” value with zebrafish embryos [2] (10 µM in E3 medium) is “not enough to induce inhibition of angiogenesis”. For the same compound, in the data set with zebrafish embryos [2], the Angiog. inhibition result is “Yes” and the “Anti-angiogenic phenotype (ISVs / DLAV)” value was “the formation of ISVs was perturbed with defective or total absence of sprouting”. For the same compound, the “Behaviour after dilution in E3 medium” value in data set [3] is “precipitated”.
